Data as given in patent US6552014B2, “Methods of inhibiting platelet activation with selective serotonin reuptake inhibitors” (HeartDrug Research, L.L.C., priority 1999, dated 2003).

Tests used:
human platelets = experiment: Platelet inhibition / platelet activation state, overall statement; assay type: cell-based; conditions: platelet rich plasma and whole blood
Protocol: Trisodium citrate (3.8%) and whole blood is immediately mixed in a 1:9 ratio, and then centrifuged at 1200 g for 2.5 minutes, to obtain platelet-rich plasma (PRP), which is kept at room temperature for use within 1 hour for platelet aggregation studies. Platelet count is determined in each PRP sample with a Coulter Counter ZM (Coulter Co., Hialeah, Fla.). Platelet numbers are adjusted to 3.50×10^8/ml for aggregation with homologous platelet-poor plasma. PRP and whole blood aggregation tests are performed simultaneously. Whole blood is diluted 1.1 with the 0.5 ml PBS, and then swirled gently to mix . […] Platelet aggregability are expressed as the percentage of light transmittance change from baseline using platelet-poor plasma as a reference at the end of recording time for plasma samples, or as a change in electrical impedance for whole blood samples. Aggregation curves are recorded for 4 minutes and analyzed according to internationally established standards using Aggrolinkg® software.
Venous blood (8 ml) was collected in a plastic tube containing 2 ml of acid-citrate-dextrose (ACD) (7.3 g citric acid, 22.0 g sodium citrate×2H2O and 24.5 glucose in 1000 ml distilled water) and mixed well. […] Samples were stored in the refrigerator at +4 °C, and analyzed on a Becton Dickinson FACScan flow cytometer with laser output of 15 mw, excitation at 488 nm, and emission detection at 530±30 nm. […]

PECAM-1 = experiment: Flow cytometry of platelet antigen expression, platelet rich plasma; assay type: cell-based, human; conditions: PRP, desmethylsertraline 64.2 ng/ml
[1] = post-angioplasty patient on aspirin

N[C@H]1CC[C@@H](c2ccc(Cl)c(Cl)c2)c2ccccc21 [Desmethyl sertraline, N-desmethylsertraline]
platelet inhibition / platelet activation state, in words (human platelets): potent dose-dependent effects inhibiting human platelets | platelet inhibition / platelet activation state, in words (human platelets; listed as NDMS): significantly reduces the platelet activation state | PECAM-1 (peak) log fluorescence intensity (PECAM-1; healthy volunteers): 91 | PECAM-1 (mean) log fluorescence intensity (PECAM-1; [1]): 105 | PECAM-1 (peak) log fluorescence intensity (PECAM-1; [1]): 84
